Test results reported in US20180162825A1, “NOVEL DGAT2 INHIBITORS” (Eli Lilly and Company, priority 2015, published 2018).

Key:
[1] = test system: plasma triglycerides; assay: In Vivo Pharmacodynamic Assay: reduction in plasma triglycerides in mice; settings: Mus musculus, po; male C57BL6 mice, gavage, with 3 mg/kg DGAT1 inhibitor and tyloxapol; reduction in plasma triglycerides vs control; read-out: ED50 (mg/kg) SD
Description: This assay measures the potency of compounds by measuring the reduction in plasma triglycerides in mice treated with the test compounds compared to control animals that are treated only with the vehicle solution. Male, C57BL6 mice (10-11 weeks old, each approximately 22 g in weight) are used in this assay.
Triglycerides synthesized in the liver are secreted into circulation as a component of the Very Low Density Lipoprotein (VLDL). To prevent degradation of triglycerides in circulation by the Lipoprotein Lipase (LPL), this assay uses IV injection of a detergent, tyloxapol, which inhibits activity of LPL. Since another enzyme, DGAT1, participates in the synthesis of liver triglyceride, a saturating dose of a DGAT1 inhibitor (sodium {trans-4-[4-(4-amino-7,7-dimethyl-7H-pyrimido[4,5-b][1,4]oxazin-6-yl)phenyl]cyclohexyl}acetate, IUPAC ACDLABS naming convention, see Dow et al. Bioorg. & Med. Chem., (2011) 21(20), 6122-6128) is also used in this assay. […]
Collect the blood via cardiac puncture into tube containing the anti-coagulant EDTA. […] Freeze the plasma samples on dry ice until they are to be analyzed. […] Reduction in total triglycerides in the test mice is calculated relative to the concentration of triglycerides in the control mice.

[2] = molecular target: T1, human DGAT2 (Homo sapiens, UniProt Q96PD7); assay: Diacylglycerol Acyltransferase 2 (DGAT2) Biochemical Assay; settings: geometric mean; recombinant human DGAT2 with FLAG tag, 1 hr at RT, 14C oleoyl-CoA; read-out: IC50 (nM), ± SD, (n) = number of experiments
T1 sequence (Q96PD7 1-388): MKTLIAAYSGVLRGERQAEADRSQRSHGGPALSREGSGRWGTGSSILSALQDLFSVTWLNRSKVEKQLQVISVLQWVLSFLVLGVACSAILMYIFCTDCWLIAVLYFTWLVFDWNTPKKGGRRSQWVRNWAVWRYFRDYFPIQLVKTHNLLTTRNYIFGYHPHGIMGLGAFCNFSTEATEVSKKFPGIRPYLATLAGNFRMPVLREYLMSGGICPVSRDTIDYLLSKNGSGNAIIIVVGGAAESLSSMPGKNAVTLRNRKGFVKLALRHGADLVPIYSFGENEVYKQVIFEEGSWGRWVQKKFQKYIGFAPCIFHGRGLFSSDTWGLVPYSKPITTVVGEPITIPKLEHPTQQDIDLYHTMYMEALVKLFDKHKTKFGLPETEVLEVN
Description: The in vitro inhibitory activity of compounds against human DGAT2 is evaluated in this assay. The assay uses recombinant human DGAT2 with a FLAG tag at the amino terminus, expressed in genetically engineered insect SF9 cells, and purified through affinity chromatography.
DGAT2 catalyzes transfer of an acyl moiety from acyl-Coenzyme A onto diacylglycerol, to form triacylglycerol. In this particular embodiment of the assay oleate is used as the acyl moiety that is transferred. To facilitate miscibility of all lipid components, all lipids used in the assay contain oleyl moiety as the only acyl group.
Prior to starting the assay prepare a mixture of dioleoyl glycerol (DOG) and dioleoyl phosphatidylcholine (DOPC) at 3:7 molar ratio. Mix appropriate amount of DOPC and DOG dissolved in chloroform in a borosilicate glass test tube. Evaporate the solvent under stream of argon to form a film of lipid. Subsequently, place the test-tube under vacuum (<1 Torr) for 2 hrs to remove residual solvent. Add appropriate amount of buffer containing TrisHCl (pH 7.5, 150 mM), and sucrose (250 mM) to achieve 20 mM concentration of total lipid. Assure complete suspension of the lipid film by vigorous vortexing. Sonicate the contents of the tube in a water bath sonicator under standing wave conditions until the suspension turns from turbid to translucent, to assure conversion of liposomes into small unilamellar vesicles (SUVs)
Prepare the test compound by dissolving it and serially diluting in half-log increments in DMSO. For each concentration, perform 10-fold step dilution of compound solution in DMSO into buffer containing TrisHCl (pH 7.5, 150 mM), and sucrose (250 mM).
Mix SUV suspensions and compound solution with other components of the assay to achieve the following concentration of individual ingredients: TrisHCl (pH 7.5, 150 mM), sucrose (250 mM), MgCl2 (5 mM,), dithiothreitol (DTT) (0.5 mM), oleoyl coenzyme A (oleoyl-CoA) (12 μM), 1-^14C oleoyl coenzyme A (oleyl-CoA-^14C) (8 μM), dioleoyl glycerol (DOG) (0.6 mM), and dioleoyl phosphatidylcholine (DOPC) (1.4 mM), DGAT2 protein (0.5 nM), DMSO (1%, v/v), with test compound concentration within a 1 nM to 100 μM range, in 30 μl total volume. Incubate the reaction for 1 hr at RT (approximately 21° C.) in individual wells of a 384-well plate. After 1 hr, stop the reaction by adding 23 μl stop solution containing a mixture of isopropanol:EtOH:heptane:DI water: 1 N NaOH (59:12.5:15:11:2.5, by volume). Add 42 μL Microscint E and then incubate mixture overnight to extract the triglyceride into the organic solvent layer containing scintillant. Measure the radioactivity using a Perkin-Elmer TopCount instrument. […] Calculate the degree of inhibition of DGAT2 by measuring the radioactivity at 10 different concentrations for each compound. […]

[3] = molecular target: T1, human DGAT2; assay: Diacylglycerol Acyltransferase 2 (DGAT2) Cell-Based Assay (HepG2); set-up: This assay uses human hepatoma cell-line, HepG2, as a source of acyltransferase activity; endogenous in cells; host or cells: HepG2; settings: geometric mean; HepG2 cells, incorporation of 13C18-oleate into triolein normalized to POPC; read-out: IC50 (nM) mean ± SD, (n) = number of experiments
Description: The inhibitory activity of compounds against human DGAT2 in a cell environment is evaluated in this assay. This assay uses human hepatoma cell-line, HepG2, as a source of acyltransferase activity.
HepG2 cell line is a commonly used model for metabolic reactions that occur in human hepatocytes in vivo. Synthesis of triglyceride in this cell line is followed by measuring incorporation of isotopically labeled oleate into triolein (a triglyceride with 3 oleoyl moieties).
Dispense the HepG2 cells into a 96-well microplate, which has been previously coated with Poly-D-lysine, in an amount of 50,000 cells/well in 100 μL Minimal Essential Media (MEM) with 10% Fetal Bovine Serum (FBS). Incubate the cells for 16 hr at 37° C. Replace the cell culture medium with MEM containing 2% Bovine Serum Albumin. Dissolve the test compound in 0.5% DMSO and prepare serial dilutions in half-log increments. Add the serially diluted test compound into separate wells. Incubate for 0.5 hr at 37° C. Thereafter replace the cell culture medium with a medium of the same composition, but which includes 50 μM ^13C18-oleate and 300 μM hydropropyl-β-cyclodextrine. Incubate for an additional 4 hr at 37° C. Discard the cell culture medium by flipping the microplate over thereby draining the wells and then soaking up any residual media from the wells with a paper towel. Dry the microplate at ambient temperature (˜21° C.) for 10 min. Add aliquots of 125 μL of solvent (isopropyl alcohol:tetrahydrofuran:methanol:chloroform, in a ratio of 90:10:2.5:2.5 v/v), an internal standard for phosphatidylcholine (PC), and an internal standard for triacylglycerol (TG) to each well. Seal and shake the plate for 30 min at ambient temperature. Transfer 100 μL aliquots of the upper phase of each well into a wells of a deep-well plate (2 mL per well). Analyze the contents of the wells using mass-spectrometry analysis. Measure both triolein with a single ^13C18-oleate moiety and POPC using liquid chromatography/mass spectroscopy method (LC/MS). The degree of incorporation of a single ^13C18-oleate moiety into triolein, normalized to the concentration of 1-palmitoyl-2-oleoyl-phosphatidylcholine (POPC) is used as a measure of DGAT2 activity.
Determine the IC50 for each compound, using a 4 parameter logistic curve fit.

[4] = therapy with lomitapide; cited from earlier work
[5] = test system: LDL-c, VLDL-c and TG serum concentrations; assay: In Vivo Efficacy Model: LDL-c, VLDL-c and TG in LDL receptor-deficient mice; settings: 30 mg/kg bid, fourteen days, oral gavage, vs control group
Description: The compounds described herein can be evaluated in an in vivo efficacy model. This assay measures the potency of compounds by measuring the reduction in low density lipoprotein cholesterol (LDL-c), very low density lipoprotein cholesterol (VLDL-c), and triglycerides (TG). Male, LDL receptor-deficient mice (29 weeks old, each approximately 30 g in weight) are used in this assay.
Feed the mice a standard mouse chow diet for two weeks prior to dosing. Prepare a test solution for oral gavage by suspend the compounds in acacia at 0.3, 1, and 3 mg/mL. Separate the mice into a test group and a control group. Thereafter at the first day of the third week dose the mice in the test group with the test solution for fourteen days, BID. Similarly dose the mice in the control group with just the vehicle without any of the test compound. Four hours after the last dose euthanize the mice with CO2. Immediately collect the blood via cardiac puncture. Isolate the serum to measure serum triglycerides as well as cholesterol in individual lipoprotein fractions. Separate the lipoprotein fractions by known HPLC methods. Determine the cholesterol concentration associated with each lipoprotein fraction by a colorimetric method (Roche Cholesterol/HP Reagent 11875540), using isolated lipoprotein fractions with known cholesterol concentration as standards. Results obtained at the highest dose, can be expressed as the percentage of change in comparison of the LDL-c, VLDL-c and TG serum concentrations of mice in the test group to those of mice n the control group.
The results for the compound of Example 24 at 30 mg/kg bid are listed below in Table 21.

| Compound | IC50 [2] | IC50 [3] | ED50 [1] | increase in the liver fat content [4] | LDL-c % change [5] | Triglycerides % change [5] | VLDL-c % change [5] |
| --- | --- | --- | --- | --- | --- | --- | --- |
| CNS(=O)(=O)Cc1ccc(Oc2cc(CNc3ncc(Cl)cn3)nc(C(F)(F)F)n2)cc1 [Example 10, 1-[4-[6-[[(5-Chloropyrimidin-2-yl)amino]methyl]-2-(trifluoromethyl)pyrimidin-4-yl]oxyphenyl]-N-methyl-methanesulfonamide] | 52 ± 27 nM | 17 ± 1 nM |  |  |  |  |  |
| O=C(NC1CCN(CCCCC2(C(=O)NCC(F)(F)F)c3ccccc3-c3ccccc32)CC1)c1ccccc1-c1ccc(C(F)(F)F)cc1 [lomitapide] |  |  |  | 8 fold |  |  |  |
| CN1CCN(c2nc(CNc3ncc(Cl)cn3)cc(Oc3ccc(CS(N)(=O)=O)cc3)n2)CC1 [Example 24, [4-[6-[[(5-Chloropyrimidin-2-yl)amino]methyl]-2-(4-methylpiperazin-1-yl)pyrimidin-4-yl]oxyphenyl]methanesulfonamide] | 579 ± 169 nM | 9 ± 6 nM | 0.8 ± 0.09 mg/kg |  | −61% | −56% | −74% |

Second part, led by results:

| IC50 [2] | IC50 [3] | Compound | ED50 [1] | increase in the liver fat content [4] | LDL-c % change [5] | Triglycerides % change [5] | VLDL-c % change [5] |
| --- | --- | --- | --- | --- | --- | --- | --- |
| 103 ± 51 nM | 53 nM | CCc1cnc(NCc2cc(Oc3ccc(CCNS(C)(=O)=O)cc3)nc(N)n2)nc1 [Example 57, N-[2-[4-[2-Amino-6-[[(5-ethylpyrimidin-2-yl)amino]methyl]pyrimidin-4-yl]oxyphenyl]ethyl]methanesulfonamide] | 0.23 ± 0.03 mg/kg |  |  |  |  |
| 27 ± 15 nM | 36 ± 1 nM | CCc1cnc(NCc2ccnc(Oc3ccc(CS(N)(=O)=O)cc3F)c2)nc1 [Example 7, [4-[[4-[[(5-ethylpyrimidin-2-yl)amino]methyl]-2-pyridyl]oxy]-3-fluoro-phenyl]methanesulfonamide] |  |  |  |  |  |
